Measurements from patent US20260207565A1, “COMPOUNDS THAT INHIBIT PKMYT1” (Exelixis, Inc., priority 2022, published 2026).

Columns and labels:
PKMYT1 = molecular target: T1, PKMYT1 (Homo sapiens, UniProt Q99640); assay: ADP-Glo PKMYT1 ATP-depletion assay; settings: 50 nM PKMYT1, 13.3 nM CDK1, 88 μM ATP, 120 minutes at RT, read-out: Biochemical IC50
T1 construct: PKMYT1 (93 kD, full length, N-terminal GST tag from Signal Chem); GST (N); purchased Signal Chem
T1 sequence (Q99640 1-499): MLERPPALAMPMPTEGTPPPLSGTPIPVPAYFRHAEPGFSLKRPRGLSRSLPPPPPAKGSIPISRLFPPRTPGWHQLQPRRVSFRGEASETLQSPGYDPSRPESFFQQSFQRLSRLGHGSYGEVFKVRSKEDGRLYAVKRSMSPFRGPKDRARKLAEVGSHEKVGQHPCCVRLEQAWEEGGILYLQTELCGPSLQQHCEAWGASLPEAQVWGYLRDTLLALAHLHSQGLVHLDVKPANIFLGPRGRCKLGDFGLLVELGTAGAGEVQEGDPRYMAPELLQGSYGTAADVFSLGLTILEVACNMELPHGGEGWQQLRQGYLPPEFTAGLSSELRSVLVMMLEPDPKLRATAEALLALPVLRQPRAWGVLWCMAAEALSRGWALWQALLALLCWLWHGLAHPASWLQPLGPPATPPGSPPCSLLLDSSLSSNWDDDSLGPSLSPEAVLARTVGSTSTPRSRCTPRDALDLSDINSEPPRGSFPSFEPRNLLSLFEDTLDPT
Protocol: (§1) Biochemical IC50 values were determined via ADP-Glo™ assay. Cellular IC50 values were determined via AlphaLISA assay.
ADP-Glo™ PKMYT1 ATP-depletion assay. The activity of PKMYT1 is measured using a luciferase-luciferin based ATP detection reaction to quantify ATP depletion resulting from kinase-catalyzed phosphoryl transfer to CDK1 or autophosphorylation of PKMYT1. The ADP generated as a byproduct of the reaction is converted to ATP and used to drive a luciferase reaction. Test compounds were dissolved in DMSO and dispensed into Corning 3824 384-well plates prior to the experiment such that the final DMSO concentration was <10%. To the compounds was added 3 μL of PKMYT1 (93 kD, full length, N-terminal GST tag from Signal Chem). The reaction was started by the addition of 2 μL of CDK1 (58 kDa, full length, N-terminal GST tag from Signal Chem) and ATP in assay buffer (50 mM Hepes, 40 mM NaCl, 10 mM MgCl2, 1 mM DTT, 0.1 mg/mL BSA, 2.5 mM MnCl2). Final assay concentrations were 50 nM PKMYT1, 13.3 nM CDK1, and 88 μM ATP. Plates were centrifuged for 1 minute at 1000 RPM and incubated at RT for 120 minutes. After the incubation period, ADP-Glo™ reagent was added and the plates were incubated for another 40 minutes before finally adding the kinase detection reagent, 30 minutes after the addition, plates were placed on a PHERAstar® plate reader and read using the Luminescence Protocol, integration time at 0.5 seconds.

[1] = tested on: phosphorylation of CDK1 at Thr14 in HCC1806 cells; assay: Cell lysate AlphaLISA assay measuring inhibition of phosphorylation of CDK1 Thr14; format: cell-based; settings: Homo sapiens, HCC1806, 4 h, compounds incubated 4 hours, AlphaLISA SureFire Ultra CDK1 Thr14, read-out: Cellular IC50
Protocol: as §1
Cell lysate AlphaLISA® assay measuring inhibition of phosphorvlation of CDK1 Thr14. Inhibition of phosphorylation of CDK1 at Thr14 was determined using AlphaLISAn SureFire® Ultra™ Kit from Perkin Elmer (ALSU-PCDK1-A10K). HCC1806 cells were seeded at 2K cells per well (50 μl/well) in 384-well plates (Corning 3570) and stored overnight at 37° C. and 5% CO2. The following day, the compounds dissolved in DMSO were introduced to the cells and incubated for 4 hours at 37° C. and 5% CO2. The cells were then washed with PBS using Blue® Washer and 10 μl of lysis buffer containing protease inhibitor was added. The plate was placed on an orbital shaker (at 4° C.) for 30 minutes and stored overnight at −80° C. for complete lysing. The next day, the plates were thawed at room temperature for at least 30 min. Reagents were prepared in a dimmed light setting (<100 lumens). The assay was run by first adding 5 μl of the acceptor mix (reaction buffer 1: reaction buffer 2:activation buffer:acceptor beads 47:47:4:2), covering the plate with foil, shaking for 2 minutes, and incubating at RT for 60 minutes. The donor mix (dilution buffer:donor beads 47:3) was then added at 5 μl per well, placed on the shaker for 2 minutes and incubated at RT for 60 minutes before reading the plates on a PHERAstar® plate reader. The results were normalized to DMSO (0% Inhibition) and 3 μM of reference compound.

| SMILES | IC50 (PKMYT1) [nM] | IC50 [1] [nM] |
| --- | --- | --- |
| CCn1cc(C#N)c2c(-c3c(C)ccc(O)c3C)cc(C(N)=O)nc21 (single isomer, unassigned) [Compound 79] | < 50 | < 50 |
| CCn1cc(C#N)c2c(-c3ccc(C)c(O)c3C)c(N)c(C(N)=O)nc21 (single isomer, unassigned) [Compound 82, (M)-5-amino-3-cyano-1-ethyl-4-(3-hydroxy-2,4-dimethylphenyl)-1H-pyrrolo[2,3-b]pyridine-6-carboxamide] | < 50 | < 50 |
| Cc1ccc(O)c(C)c1-c1c(N)c(C(N)=O)nc2c1nc(C)n2C(C)C (single isomer, unassigned) [Compound 84, (P)-6-amino-7-(3-hydroxy-2,6-dimethylphenyl)-3-isopropyl-2-methyl-3H-imidazo[4,5-b]pyridine-5-carboxamide] | < 50 | < 50 |
| Cc1ccc(O)c(C)c1-c1c(N)c(C(N)=O)nc2c1ncn2C [Compound 1, 6-Amino-7-(3-hydroxy-2,6-dimethylphenyl)-3-methyl-3H-imidazo[4,5-b]pyridine-5-carboxamide] | < 50 | 50 to 500 |
| Cc1c(Cl)cncc1-c1c(N)c(C(N)=O)nc2c1c(C#N)c(C)n2C [Compound 12] | < 50 | 50 to 500 |
| Cc1ccc(O)c(C)c1-c1c(N)c(C(N)=O)nc2c1c(C#N)cn2C [Compound 13] | < 50 | < 50 |
| Cc1ccc(O)c(C)c1-c1c(N)c(C(N)=O)cc2c1nc(C)n2C [Compound 15, 5-amino-4-(3-hydroxy-2,6-dimethylphenyl)-1,2-dimethyl-1H-benzo[d]imidazole-6-carboxamide] | < 50 | 500 to 1000 |
| Cc1ccc(O)c(C)c1-c1cc(C(N)=O)nc2cnn(C)c12 [Compound 18, 7-(3-hydroxy-2,6-dimethylphenyl)-1-methyl-pyrazolo[4,3-b]pyridine-5-carboxamide] | 1000 to 5000 | ≥ 5000 |
| CNC(=O)c1cc(-c2c(C)ccc(O)c2C)c2[nH]ncc2n1 [Compound 19, 7-(3-hydroxy-2,6-dimethylphenyl)-N-methyl-1H-pyrazolo[4,3-b]pyridine-5-carboxamide] | ≥ 5000 | ≥ 5000 |
| Cc1ccc(O)c(C)c1-c1cc(C(=O)N(C)C)nc2cn[nH]c12 [Compound 20] | ≥ 5000 | ≥ 5000 |
| Cc1ccc(O)c(C)c1-c1cc(C(N)=O)nc2c1ccn2C [Compound 21, 4-(3-hydroxy-2,6-dimethylphenyl)-1-methyl-pyrrolo[2,3-b]pyridine-6-carboxamide] | 500 to 1000 | ≥ 5000 |
| Cc1c(O)cccc1-c1cc(C(N)=O)nc2c1c(C#N)cn2C [Compound 28, 3-cyano-4-(3-hydroxy-2-methylphenyl)-1-methyl-pyrrolo[2,3-b]pyridine-6-carboxamide] | 50 to 500 | 500 to 1000 |
| CCn1cc(C#N)c2c(-c3c(C)ccc(O)c3C)cc(C(N)=O)nc21 [Compound 29, 3-cyano-1-ethyl-4-(3-hydroxy-2,6-dimethylphenyl)pyrrolo[2,3-b]pyridine-6-carboxamide] | < 50 | < 50 |
| Cc1ccc(O)c(C)c1-c1cc(C(N)=O)cc2c1cnn2C [Compound 35, 4-(3-hydroxy-2,6-dimethylphenyl)-1-methyl-indazole-6-carboxamide] | 1000 to 5000 | ≥ 5000 |
| Cc1ccc(O)c(C)c1-c1cc(C(N)=O)cc2cn[nH]c12 [Compound 37, 7-(3-hydroxy-2,6-dimethylphenyl)-1H-indazole-5-carboxamide] | 1000 to 5000 | 1000 to 5000 |
| CNC(=O)c1cc(-c2c(C)ccc(O)c2C)c2[nH]ncc2c1 [Compound 38] | ≥ 5000 | 1000 to 5000 |
| Cc1ccc(O)c(C)c1-c1cc(C(=O)N(C)C)cc2cn[nH]c12 [Compound 39] | ≥ 5000 | 1000 to 5000 |
| Cc1ccc(O)c(C)c1-c1cc(C(N)=O)cc2cnn(C)c12 [Compound 40, 7-(3-hydroxy-2,6-dimethylphenyl)-1-methyl-indazole-5-carboxamide] | ≥ 5000 | ≥ 5000 |

The remaining lines, values ahead:

| IC50 (PKMYT1) [nM] | IC50 [1] [nM] | SMILES |
| --- | --- | --- |
| < 50 | < 50 | CCn1cc(-c2cn[nH]c2)c2c(-c3c(C)ccc(O)c3C)cc(C(N)=O)nc21 (single isomer, unassigned) [Compound 69, (P)-1-Ethyl-4-(3-hydroxy-2,6-dimethylphenyl)-3-(1H-pyrazol-4-yl)-1H-pyrrolo[2,3-b]pyridine-6-carboxamide] |
| < 50 | < 50 | Cc1ccc(O)c(C)c1-c1c(N)c(C(N)=O)nc2c1ncn2C1CC1 (single isomer, unassigned) [Compound 77, (P)-6-amino-3-cyclopropyl-7-(3-hydroxy-2,6-dimethylphenyl)-3H-imidazo[4,5-b]pyridine-5-carboxamide] |
| < 50 | < 50 | Cc1ccc(O)c(C)c1-c1c(N)c(C(N)=O)nc2c1ncn2C(C)C (single isomer, unassigned) [Compound 83, (P)-6-amino-7-(3-hydroxy-2,6-dimethylphenyl)-3-isopropyl-3H-imidazo[4,5-b]pyridine-5-carboxamide] |
| < 50 | 50 to 500 | Cn1cc(C#N)c2c(-c3cccc(O)c3)c(N)c(C(N)=O)nc21 [Compound 7, 5-Amino-3-cyano-4-(3-hydroxyphenyl)-1-methyl-1H-pyrrolo[2,3-b]pyridine-6-carboxamide] |
| < 50 | 50 to 500 | Cc1c(F)cncc1-c1c(N)c(C(N)=O)nc2c1c(C#N)cn2C [Compound 8, 5-Amino-3-cyano-4-(5-fluoro-4-methylpyridin-3-yl)-1-methyl-1H-pyrrolo[2,3-b]pyridine-6-carboxamide] |
| < 50 | 50 to 500 | Cc1c(O)cccc1-c1c(N)c(C(N)=O)nc2c1c(C#N)c(C)n2C [Compound 9, 5-amino-3-cyano-4-(3-hydroxy-2-methylphenyl)-1,2-dimethyl-1H-pyrrolo[2,3-b]pyridine-6-carboxamide] |
| < 50 | < 50 | Cc1c(O)cccc1-c1c(N)c(C(N)=O)nc2c1c(C#N)c(C)n2CC(F)(F)F [Compound 14] |
| 1000 to 5000 | ≥ 5000 | Cc1ccc(O)c(C)c1-c1cc(C(N)=O)nc2cn[nH]c12 [Compound 16, 7-(3-hydroxy-2,6-dimethylphenyl)-1H-pyrazolo[4,3-b]pyridine-5-carboxamide] |
| 1000 to 5000 | ≥ 5000 | Cc1ccc(O)c(C)c1-c1cc(C(N)=O)nc2c1cnn2C [Compound 17, 4-(3-hydroxy-2,6-dimethylphenyl)-1-methyl-pyrazolo[3,4-b]pyridine-6-carboxamide] |
| < 50 | 50 to 500 | Cc1ccc(O)c(C)c1-c1cc(C(N)=O)nc2c1c(C#N)cn2C [Compound 22, 3-cyano-4-(3-hydroxy-2,6-dimethylphenyl)-1-methyl-pyrrolo[2,3-b]pyridine-6-carboxamide] |
| 50 to 500 | 1000 to 5000 | Cc1ccc(O)c(C)c1-c1cc(C(N)=O)nc2c1c(Br)cn2C [Compound 24] |
| 1000 to 5000 | ≥ 5000 | Cc1ccc(O)c(C)c1-c1cc(C(N)=O)cc2nn(C)cc12 [Compound 36, 4-(3-hydroxy-2,6-dimethylphenyl)-2-methyl-indazole-6-carboxamide] |
